Some test systems named below: RXF 393; A549; CCRF-CEM; DU-145; SW-620; SR; T47D; RPMI-8226; MDA-MB-231; SK-MEL-2; UACC-62; HL-60; OVCAR-3; TK-10; SNB-19; A498; NCI/ADR-RES; MDA-MB-435; HOP-92; UACC-257.
Common to all, as to assay: NCI anticancer screen, dose series, 48 h

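Exposure lasted 48 hours, with cells grown in 96-well plates and compounds tested at five concentrations. GI50 = concentration required for 50% inhibition of growth.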 Active and inactive are the calls of the source. Cut-off read from the data, not from the text of the source: active = GI50 up to about 1.1 µM and inactive = higher.

For `CCOc1ccccc1/C=C(/C#N)C(N)=O`, the GI50 with RXF 393 is > 100 µM (inactive); with A549, > 100 µM (inactive); with CCRF-CEM, 10.3 µM (inactive); in the assay with DU-145, > 100 µM (inactive); in the assay on SW-620, 60 µM (inactive); with SR, 23.9 µM (inactive). Moreover, the GI50 was > 100 µM (inactive) in the assay on T47D; > 100 µM (inactive) with RPMI-8226; > 100 µM (inactive) in the assay on MDA-MB-231; > 100 µM (inactive) in the assay on SK-MEL-2; 96.2 µM (inactive) in the assay with UACC-62; 21.6 µM (inactive) in the assay on HL-60. Besides, the GI50 is > 100 µM (inactive) with OVCAR-3; > 100 µM (inactive) in the assay with TK-10; > 100 µM (inactive) with SNB-19; > 100 µM (inactive) in the assay with A498; > 100 µM (inactive) with NCI/ADR-RES; 18.2 µM (inactive) with MDA-MB-435. In addition, the GI50 in the assay on HOP-92 and in the assay on UACC-257 was > 100 µM (inactive) each time.

For `Oc1ccc2ccccc2c1C(c1ccc(Cl)cc1)c1c(O)ccc2ccccc12`, the GI50 was 2.96 µM (inactive) in the assay with RXF 393; 2.95 µM (inactive) in the assay with A549; 2.63 µM (inactive) with CCRF-CEM; 3.37 µM (inactive) in the assay on DU-145; 3.18 µM (inactive) with SW-620; 2.82 µM (inactive) with SR. Besides, the GI50 with T47D is 2.86 µM (inactive); with RPMI-8226, 2.01 µM (inactive); in the assay with MDA-MB-231 it was 3.17 µM (inactive); in the assay on SK-MEL-2, 2.4 µM (inactive); with UACC-62, 3.48 µM (inactive); in the assay with HL-60 it was 2.34 µM (inactive). Also, the GI50 with OVCAR-3 is 2.63 µM (inactive); with TK-10, 3.53 µM (inactive); in the assay with SNB-19 it was 4.93 µM (inactive); with A498 it was 2.7 µM (inactive); with NCI/ADR-RES it was 2.85 µM (inactive); with MDA-MB-435 it was 3.18 µM (inactive). The figures for the GI50 with HOP-92 and in the assay with UACC-257 were 1.65 µM (inactive) and 4.13 µM (inactive), respectively.

In the case of `CC[C@@]1(O)C(=O)OCc2c1cc1n(c2=O)Cc2c-1nc1ccc(N)cc1c2CC[Si](C)(C)C`, the GI50 in the assay with RXF 393, in the assay on A549, with CCRF-CEM, in the assay with DU-145, in the assay with SW-620 and in the assay with SR was < 0.01 µM (active) each time. The GI50 with T47D was < 0.01 µM (active); with RPMI-8226 it was < 0.01 µM (active); in the assay with MDA-MB-231, < 0.0363 µM (active); in the assay on SK-MEL-2, 0.0409 µM (active); in the assay with UACC-62, < 0.01 µM (active); in the assay with HL-60 it was < 0.01 µM (active). Also, the GI50 is < 0.0188 µM (active) in the assay on OVCAR-3; 0.051 µM (active) with TK-10; < 0.01 µM (active) with SNB-19; < 0.01 µM (active) with A498; < 0.01 µM (active) with NCI/ADR-RES; < 0.01 µM (active) in the assay with MDA-MB-435. The results for the GI50 in the assay on HOP-92 and in the assay on UACC-257 were < 0.025 µM (active) and < 0.01 µM (active), respectively.

Turning to `COC(=O)/C=C1/OC(c2ccc(OC)cc2)=C(Cl)C1=O`, the GI50 in the assay on RXF 393 is 10 µM (inactive); in the assay on A549, 23.7 µM (inactive); in the assay on CCRF-CEM, 4.78 µM (inactive); in the assay on DU-145, 18.2 µM (inactive); in the assay on SW-620 it was 12.4 µM (inactive); in the assay with SR, 1.61 µM (inactive). In addition, the GI50 in the assay on T47D is 15.3 µM (inactive); in the assay on RPMI-8226 it was 3.95 µM (inactive); in the assay with MDA-MB-231, 12.3 µM (inactive); in the assay on SK-MEL-2, 17.2 µM (inactive); in the assay with UACC-62, 17.4 µM (inactive); in the assay on HL-60, 3.8 µM (inactive). Moreover, the GI50 was 13.3 µM (inactive) with OVCAR-3; 24.3 µM (inactive) in the assay with TK-10; 23 µM (inactive) in the assay on SNB-19; 22.5 µM (inactive) in the assay on A498; 25.8 µM (inactive) in the assay with NCI/ADR-RES; 15.6 µM (inactive) in the assay with MDA-MB-435. The GI50 was 23.1 µM (inactive) in the assay with HOP-92 and 21.6 µM (inactive) with UACC-257.

With `Cc1ccc2c(c1C)C(=O)C1(Cc3cc4c(cc3C1=O)CCC4)C2` (stereo not given), the GI50 with RXF 393 was 99.8 µM (inactive); with A549 it was > 100 µM (inactive); in the assay on CCRF-CEM, > 100 µM (inactive); in the assay on DU-145, > 100 µM (inactive); in the assay with SW-620, > 100 µM (inactive); with SR, > 100 µM (inactive). Moreover, the GI50 in the assay with T47D, in the assay on RPMI-8226, in the assay with MDA-MB-231, in the assay with SK-MEL-2, in the assay with UACC-62 and in the assay on HL-60 was > 100 µM (inactive) throughout. Moreover, the GI50 in the assay with OVCAR-3 is 87.9 µM (inactive); in the assay with TK-10 it was > 100 µM (inactive); in the assay on SNB-19, > 100 µM (inactive); in the assay on A498, > 100 µM (inactive); in the assay on NCI/ADR-RES it was > 100 µM (inactive); in the assay on MDA-MB-435 it was > 100 µM (inactive). The GI50 in the assay with HOP-92 and with UACC-257 was > 100 µM (inactive) each time.

Take `CC(NC(=O)N(C)C)NC(=O)N(C)C`: the GI50 in the assay with RXF 393, with A549, in the assay with CCRF-CEM, in the assay with DU-145, in the assay on SW-620 and with SR was > 10 µM (inactive) throughout. The GI50 with T47D, with RPMI-8226, with MDA-MB-231, in the assay with SK-MEL-2, in the assay with UACC-62 and with HL-60 was > 10 µM (inactive) each time. Besides, the GI50 in the assay with OVCAR-3, with TK-10, in the assay on SNB-19, in the assay on A498, with NCI/ADR-RES and with MDA-MB-435 was > 10 µM (inactive) each time. Further, the GI50 with HOP-92 and in the assay with UACC-257 was > 10 µM (inactive) in each case.

On to `C/C=N\n1c(C)c(C#N)c(C#N)c1N`, for which the GI50 was > 100 µM (inactive) in the assay with RXF 393; 34.5 µM (inactive) in the assay with A549; > 100 µM (inactive) with CCRF-CEM; > 100 µM (inactive) in the assay on DU-145; > 100 µM (inactive) in the assay with SW-620; > 100 µM (inactive) in the assay on SR. The GI50 in the assay with T47D, in the assay with RPMI-8226, in the assay with MDA-MB-231, in the assay on SK-MEL-2, in the assay on UACC-62 and in the assay on HL-60 was > 100 µM (inactive) throughout. Moreover, the GI50 in the assay on OVCAR-3, in the assay with TK-10, with SNB-19, in the assay with A498, with NCI/ADR-RES and in the assay on MDA-MB-435 was > 100 µM (inactive) each time. Moreover, the GI50 with HOP-92 and with UACC-257 was > 100 µM (inactive) in each case.

`CC(C)=CCC/C(C)=C/CC/C(C)=C/CCN(C)CCO`: the GI50 is 7.59 µM (inactive) with RXF 393; 9.77 µM (inactive) in the assay on A549; 2.39 µM (inactive) in the assay on CCRF-CEM; 12.7 µM (inactive) with DU-145; 3.58 µM (inactive) with SW-620; 6.35 µM (inactive) in the assay on SR. Besides, the GI50 is 2.78 µM (inactive) in the assay on T47D; 2.96 µM (inactive) with RPMI-8226; 10.9 µM (inactive) in the assay with MDA-MB-231; 13.2 µM (inactive) with SK-MEL-2; 13.5 µM (inactive) in the assay on UACC-62; 1.95 µM (inactive) in the assay with HL-60. Also, the GI50 in the assay on OVCAR-3 was 13.8 µM (inactive); in the assay on TK-10 it was 6 µM (inactive); with SNB-19, 8.07 µM (inactive); with A498, 14.2 µM (inactive); in the assay on NCI/ADR-RES, 12.4 µM (inactive); in the assay with MDA-MB-435, 4.44 µM (inactive). Also, the GI50 in the assay with HOP-92 was 3.32 µM (inactive); in the assay on UACC-257 it was 8.24 µM (inactive).

On to `C[C@]12CC[C@H](O)CC1=CC[C@@H]1[C@@H]2CC[C@]2(C)C(=N/N)/C(=N\O)C[C@@H]12`, for which the GI50 is > 100 µM (inactive) in the assay on RXF 393; > 100 µM (inactive) in the assay with A549; 44.2 µM (inactive) with CCRF-CEM; > 100 µM (inactive) in the assay on DU-145; 60 µM (inactive) in the assay on SW-620; 7.78 µM (inactive) in the assay with SR. Also, the GI50 in the assay with T47D is > 100 µM (inactive); in the assay on RPMI-8226, > 100 µM (inactive); with MDA-MB-231, 32.7 µM (inactive); in the assay on SK-MEL-2 it was 88.5 µM (inactive); in the assay on UACC-62, 58.5 µM (inactive); with HL-60, 9.91 µM (inactive). For the same compound, the GI50 is > 100 µM (inactive) with OVCAR-3; > 100 µM (inactive) in the assay on TK-10; 35.2 µM (inactive) in the assay with SNB-19; 16.7 µM (inactive) with A498; > 100 µM (inactive) in the assay with NCI/ADR-RES; 2.12 µM (inactive) in the assay on MDA-MB-435. Besides, the figures for the GI50 with HOP-92 and with UACC-257 were 2.42 µM (inactive) and > 100 µM (inactive), respectively.

For `Cc1cn(CCCCCCOC(=O)NC(CCCNC(N)=O)C(=O)O)c(=O)[nH]c1=O` (stereo not given), the GI50 with RXF 393, in the assay with A549, in the assay on CCRF-CEM, in the assay on DU-145, in the assay with SW-620 and in the assay with SR was > 100 µM (inactive) in each case. Moreover, the GI50 in the assay with T47D, with RPMI-8226, in the assay on MDA-MB-231, in the assay with SK-MEL-2, in the assay on UACC-62 and in the assay with HL-60 was > 100 µM (inactive) each time. Further, the GI50 in the assay with OVCAR-3, in the assay on TK-10, in the assay on SNB-19, with A498, in the assay on NCI/ADR-RES and with MDA-MB-435 was > 100 µM (inactive) throughout. Also, the GI50 in the assay on HOP-92 and with UACC-257 was > 100 µM (inactive) in each case.

For the origin of these results see ChEMBL document CHEMBL1201862, “PubChem BioAssay data set” (2004).
